This is an account of results in patent US6399614B1, “1-(N-phenylaminoalkyl)piperazine derivatives substituted at position 2 of the phenyl ring” (Recordati S.A. Chemical and Pharmaceutical Company, priority 1997, dated 2002).

Test [1] concerns rhythmic bladder voiding contractions. Put plainly: Volume-induced rhythmic bladder voiding contractions in anaesthetized rats. It is filed as in vivo, rat. To be noted: Rattus norvegicus, intravenous; for ED (10 min disappearance of contractions): extrapolated dose inducing 10 min of disappearance of the contractions, anaesthetized rats, read-out: ED10 min; for ED50: extrapolated dose inducing a reduction of the number of contractions >30% in 50% of treated rats, read-out: ED50 (frequency).

A further test concerns urinary bladder. Put plainly: Cystometric parameters (cystometrogram) in conscious rats. To be noted: for BVC after treatment / MP after treatment: mean ± S.E.; for change in vivo at 0.1 mg/kg / change in vivo at 1 mg/kg / change in vivo at 0.3 mg/kg: Rattus norvegicus, iv, 0.25 h, after vs before; for change in vivo at 0.1 mg/kg: i.v. 100 μg/kg; for change in vivo at 1 mg/kg: i.v. 1000 μg/kg; for change in vivo at 0.3 mg/kg: i.v. 300 μg/kg. It is filed as in vivo, rat.

The structures appear in SMILES notation. Like-named read-outs stand apart in the source and are kept apart here.

Consider `COC(=O)c1ccccc1N(CCN1CCN(c2ccccc2OC)CC1)C(=O)C1CCCCC1` [Example 18, 1-[N-(2-methoxycarbonylphenyl)-N-cyclohexylcarbonyl-2-aminoethyl]-4-(2-methoxyphenyl)piperazine], for which, in test [1], the ED (10 min disappearance of contractions) was 0.101 mg/kg and the ED50 (as a rule, the midpoint of the dose-response relation) was 0.017 mg/kg. In the test on urinary bladder (15 min after i.v. 100 μg/kg), this compound yielded a BVC after treatment of 0.80 ± 0.09 mL and an MP after treatment of 48.5 ± 4.9 mmHg. In the test with urinary bladder (15 min after i.v. 1000 μg/kg), this compound showed a BVC after treatment of 0.89 ± 0.16 mL and an MP after treatment of 79.3 ± 17.0 mmHg. For the same compound, in the test with urinary bladder (read-out: BVC % of change), the change in vivo at 0.1 mg/kg worked out at 33.3% and the change in vivo at 1 mg/kg was found to be 40.3%. Moreover, in the test with urinary bladder (read-out: MP % of change), the change in vivo at 0.1 mg/kg was -34.3% and the change in vivo at 1 mg/kg is -13.5%.
For the compound `COc1ccccc1N1CCN(CCN(C(=O)C2CCCCC2)c2ccccc2)CC1` [Compound A, 1-(N-phenyl-N-cyclohexylcarbonyl-2-aminoethyl)-4-(2-methoxyphenyl)piperazine, reference compound], in test [1], the ED (10 min disappearance of contractions) is 0.65 mg/kg and the ED50 was 0.033 mg/kg. Further, in the test with urinary bladder (15 min after i.v. 300 μg/kg), the BVC after treatment came out at 0.87 ± 0.05 mL and the MP after treatment came out at 85.6 ± 11.3 mmHg. In the test on urinary bladder (15 min after i.v. 1000 μg/kg), the BVC after treatment was determined as 0.97 ± 0.11 mL and the MP after treatment is on record as 84.1 ± 5.2 mmHg. In addition, in the test with urinary bladder (read-out: BVC % of change), the change in vivo at 0.3 mg/kg came to 7.4% and the change in vivo at 1 mg/kg came to 24.4%. In addition, in the test with urinary bladder (read-out: MP % of change), the change in vivo at 0.3 mg/kg was -5.5% and the change in vivo at 1 mg/kg was -6.8%. In the test on urinary bladder (conscious rats, i.v.), the “i.v. dose at which a significant increase in BVC was observed” value amounted to 1.0 mg/kg.
As for `O=C(C1CCCCC1)N(CCN1CCN(c2cccc3[nH]ccc23)CC1)c1ccccc1[N+](=O)[O-]` [Example 13, 1-[N-(2-nitrophenyl)-N-cyclohexylcarbonyl-2-aminoethyl]-4-(4-indolyl)piperazine], in test [1], the ED (10 min disappearance of contractions) was 0.266 mg/kg and the ED50 is 0.029 mg/kg. Moreover, in the test with urinary bladder (15 min after i.v. 100 μg/kg), the BVC after treatment came to 1.07 ± 0.14 mL and the MP after treatment is on record as 75.6 ± 13.7 mmHg. In addition, in the test on urinary bladder (15 min after i.v. 300 μg/kg), the BVC after treatment amounted to 0.95 ± 0.12 mL and the MP after treatment was 65.7 ± 13.8 mmHg. In the test on urinary bladder (read-out: BVC % of change), the change in vivo at 0.1 mg/kg is 13.4% and the change in vivo at 0.3 mg/kg was found to be 30.2%. Besides, in the test with urinary bladder (read-out: MP % of change), the change in vivo at 0.1 mg/kg was -12.5% and the change in vivo at 0.3 mg/kg was -10.6%.
For `COc1ccccc1N1CCN(CCN(C(=O)C2CCCCC2)c2ccccc2OC)CC1` [Example 23, 1-[N-(2-methoxyphenyl)-N-cyclohexylcarbonyl-2-aminoethyl]-4-(2-methoxyphenyl)piperazine], in test [1], the ED (10 min disappearance of contractions) is 0.093 mg/kg and the ED50 was 0.018 mg/kg. In the test with urinary bladder (15 min after i.v. 300 μg/kg), the BVC after treatment turned out to be 0.77 ± 0.03 mL and the MP after treatment came to 86.4 ± 10.0 mmHg. Also, in the test on urinary bladder (15 min after i.v. 1000 μg/kg), the BVC after treatment is 0.89 ± 0.12 mL and the MP after treatment was 61.9 ± 8.5 mmHg. In addition, in the test with urinary bladder (read-out: BVC % of change), the change in vivo at 0.3 mg/kg was 54.3% and the change in vivo at 1 mg/kg turned out to be 34.5%. In the test with urinary bladder (read-out: MP % of change), the change in vivo at 0.3 mg/kg is -7.6% and the change in vivo at 1 mg/kg was -17.1%.
Take `COc1ccccc1N1CCN(CCN(C(=O)C2CCCCC2)c2ccccc2[N+](=O)[O-])CC1` [Example 2, 1-[N-(2-nitrophenyl)-N-cyclohexylcarbonyl-2-aminoethyl]-4-(2-methoxyphenyl) piperazine]: in test [1], the ED (10 min disappearance of contractions) is 0.06 mg/kg and the ED50 was 0.009 mg/kg. In the test on urinary bladder (15 min after i.v. 300 μg/kg), this compound came in with a BVC after treatment of 0.87 ± 0.10 mL and an MP after treatment of 80.4 ± 6.5 mmHg. Besides, in the test with urinary bladder (15 min after i.v. 1000 μg/kg), the BVC after treatment was found to be 0.75 ± 0.10 mL and the MP after treatment amounted to 99.6 ± 11.2 mmHg. Also, in the test with urinary bladder (read-out: BVC % of change), the change in vivo at 0.3 mg/kg was 22.5% and the change in vivo at 1 mg/kg came to 21%. In the test on urinary bladder (read-out: MP % of change), the change in vivo at 0.3 mg/kg is -15.7% and the change in vivo at 1 mg/kg is -8.6%. In addition, in the test with urinary bladder (conscious rats, i.v.), the “effect on MP (in words)” value is recorded as “slight, albeit significant, decrease in MP” and the “i.v. dose at which a significant increase in BVC was observed” value was 0.3 mg/kg.
